The values that follow come from patent US20120141983A1, “Quantitative Aggregation Sensors” (priority 2010, published 2012).

The subject of one assay is cLucAβ. Put plainly: Effect of small molecule aggregation inhibitors on cytoplasmic reporter in inducible cell lines. In kind it is cell-based. Conditions: 1 μM compound, 24 hours. The protocol: (§1) 293T FlipInTrex (Invitrogen) cells. 293T FlipInTrex cells were grown as described above, using Tet Approved Fetal Bovine Serum (Clontech) and supplementing the medium with Zeocin 100 μg/mL (Invitrogen) and Blasticidin 15 μg/ml (InVivoGen, San Diego, USA). Zeocin selects for the lacZeo inserted into FRT sites in the genome, and Blasticidin selects for Tet repressor expression. For the generation of isogenic stable doxycycline inducible cell lines, cells were co-transfected overnight using Lipofectamine 2000 with the pcDNA5/FRT/TO vectors containing the fusion proteins-IRES-(NLS)3EGFP cassettes, and the pOGG-Flp recombinase plasmid (Invitrogen) at a ratio pcDNA/pOGG of 1:9. On day 2, cells were replated at −25% confluency, and selection for recombined clones was started by supplementing the medium with 75 μg/ml Hygromycin (InvivoGen) and Zeocin 100 μg/mL. Medium was exchanged every 2-3 days until colonies appeared. Cells were adapted to cell culture media containing 5% Tet approved Fetal Bovine Serum (Clontech), and 5% Serum Replacement 3 (Sigma). […] Expression of the chimeric reporter proteins was induced by addition of 0.75 μg/mL Doxycycline (Sigma-Aldrich) to cell culture medium, and tested for luciferase activity and western-blot (see below).
Effect of Small Molecule Inhibitors of Aβ42 aggregation in inducible cell lines. Congo Red, Rosmarinic acid, Quercetin, scyllo-inositol, and (−)-Epigallocatechin gallate (EGCG) were purchased from Sigma-Aldrich, and dissolved in DMSO. Cells were plated in 96-well plates and allowed to attach overnight. […]
cLuciferase Firefly activity. […] 20 μl of cellular lysate were transferred to white 96-well plates (Corning), 100 μl of luciferase reagent were injected, and every well was read for 5 s followed by 3 s delay to minimize cross-talk between wells using a Modulus Microplate Multimode Reader (Turner Biosystems Inc., Sunnyvale, Calif., USA). cLuciferase activity is measured in Relative Luminiscence Units (RLU).
(§2) Cell survival was measured using Cell titer Blue kit (Promega). […] After 1 hour incubation at 37° C., fluorescence was recorded in a Spectramax M5 plate reader, using excitation at 560 nm and emission at 590 nm in Relative Fluorescence Units (RFU).
(§3) Effect of small molecule inhibitors of Aβ42 in the inducible cell lines. The ratio luciferase activity/cell survival (Rsmall molecule) was calculated as shown in eq. […] Four technical replicates were measured per molecule for each test. Standard deviation was calculated using eq. […]
(§4) Comparing the Fold inhibition ratio of a given molecule in the Aβ42 and SH3 sensors allows the identification of molecules that change the ratios by mechanisms non-specific to aggregation such as toxicity or interference with luciferase activity. […] Standard errors were calculated using Error propagation theory. […]

Another assay deals with sLucAβ. As to the kind of experiment: Effect of small molecule aggregation inhibitors on secreted reporter in inducible cell lines. Conditions: 1 μM compound, 24 hours. In kind it is cell-based. As to the method: as §1
Effect of Small Molecule Inhibitors of Aβ42 aggregation in inducible cell lines. Congo Red, Rosmarinic acid, Quercetin, scyllo-inositol, and (−)-Epigallocatechin gallate (EGCG) were purchased from Sigma-Aldrich, and dissolved in DMSO. Cells were plated in 96-well plates and allowed to attach overnight. Cell medium without antibiotics was prepared containing 2× of the final compound concentration (1 μM) and 2× of final doxycycline concentration (0.75 μgr/ml) and diluted to 1× with media in the well. Control cells were treated with medium containing the same volume of DMSO. 8 wells were treated per condition. After 24 hours, 4 wells were harvested for luciferase assays, and 4 wells were used for cell survival assays.
sLuc Metridia activity. sLuc Metridia activity was measured using the same plates and instrument described above. Metridia reagent was prepared as described in (G. A. Stepanyuk et al., 2008, Protein Expr Purif 61, 142). Coelenterazine, native (Biosynth AG, Staad, Switzerland) was brought up at 1.43 mM in Methanol acidified with 1N HCl and diluted to 7.2 μM in 20 mM Tris-HCl 0.3M NaCl pH7.5 (Sigma-Aldrich). 20 μl of cell medium were transferred to white 96-well plates, 50 μl of reagent was injected, and every well was read for 5 s followed by a 3s delay. sLuciferase activity is measured in Relative Luminiscence Units (RLU).
as §2, §3, §4

A further assay has as its target T1, synthetic Aβ42 (Homo sapiens, UniProt P05067).
T1 construct: a fragment comprising residues 672-713 of Aβ (“Aβ42”); purchased Bachem
As to the kind of experiment: Inhibition of in vitro aggregation of synthetic Aβ42 by small molecules (ThT fluorescence). In kind it is biochemical. Conditions: 1 μM compound, 25 μM Aβ42, 1 day at 30° C. The protocol: (§5) Aβ42, Aβ40, Aβ42F20E and Aβ42E22G peptides (Bachem, Torrance, USA) were disaggregated using Hexafluoro-2-propanol (HFIP, Sigma-Aldrich) following the protocol described elsewhere (C. Goldsbury, et al., 2005, J Mol Biol 352, 282), and aliquoted into low protein binding tubes (Eppendorf).
Effect of small molecule inhibitors of Aβ42 aggregation. 2 mM Aβ42 stock solutions in DMSO) were sonicated for 5 minutes, and diluted to final 25 μM concentration in PBS (Gibco). Small molecules were added to final 1 μM concentration, the final DMSO concentration in all samples and control was kept equal. Samples were incubated for 1 day at 30° C., and tested for Aβ42 aggregation using Thioflaving T (Tht, Sigma-Aldrich) binding monitored by fluorescence (excitation 450 nm/emission 485 nm). Tht was prepared at 5 μM in 20 mM Glycine pH=8 buffer. 10 μl of sample were plated in triplicates in clear bottom non-binding black plates (Corning), and 100 μl of Tht were added. After 5 minutes of incubation at room temperatures, fluorescence was read. Data were corrected by Tht alone fluorescence, and normalized by the Tht intensity of the control solution, Aβ42+DMSO. Ratios and standard deviations were calculated as described in the Data Analysis section.

Assay [1] has as its system cytoplasmic and secreted reporters. Put plainly: Thapsigargin effect on activity of cytoplasmic and secreted reporters in inducible 293FlpInTrex cell lines. In kind it is cell-based. As to conditions: 24 hours, different concentrations. The protocol:
FIG. 16: Changes in proteostasis pathways 96 hours postinduction (A) relative mRNA levels of cells expressing cLucAβ or sLucAβ versus cLucSH3 or sLucSH3 measured by qPCR; (B) Protein expression analysed by Western blot. (C) Activity of cytoplasmic and secreted reporters normalized by cell survival in the presence of different concentrations of Thapsigargin compared to solvent alone. Data are means±s.d. Experiments were carried out using doxycyline inducible 293FlpInTrex cell lines expressing the aggregation sensors.
293T FlipInTrex (Invitrogen) cells. 293T FlipInTrex cells were grown as described above, using Tet Approved Fetal Bovine Serum (Clontech) and supplementing the medium with Zeocin 100 μg/mL (Invitrogen) and Blasticidin 15 μg/ml (InVivoGen, San Diego, USA). Zeocin selects for the lacZeo inserted into FRT sites in the genome, and Blasticidin selects for Tet repressor expression. […]
as §2

Assay [2] in a line: In vitro Aβ42 aggregation kinetics by Thioflavin T fluorescence. Conditions: 25 μM in PBS, 30° C., ThT. Type of assay: physicochemical. The protocol:
as §5
In vitro Aβ42 kinetic experiment. 25 μM Aβ42 in PBS was incubated at 30° C. Aliquots were withdrawn at different time points, and Tht binding was measured in triplicates.

T1 sequence (P05067 672-713): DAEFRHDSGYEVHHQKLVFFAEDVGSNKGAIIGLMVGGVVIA

In the case of `O=C(/C=C/c1ccc(O)c(O)c1)O[C@H](Cc1ccc(O)c(O)c1)C(=O)O` [Rosmarinic acid], the “effect on cLucAβ activity compared to solvent alone” value in the assay with cLucAβ is “no effect”. In addition, the “effect on sLucAβ activity compared to solvent alone” value in the assay on sLucAβ is listed as “significantly increased activity”.

As for `Nc1c(/N=N/c2ccc(-c3ccc(/N=N/c4cc(S(=O)(=O)O)c5ccccc5c4N)cc3)cc2)cc(S(=O)(=O)O)c2ccccc12` [Congo Red], the “inhibition of in vitro aggregation of synthetic Aβ42 by ThT fluorescence” value at synthetic Aβ42 is reported as “potently inhibited”. The “effect on sLucAβ activity compared to solvent alone” value in the assay with sLucAβ is on record as “did not increase the activity”.

In the case of `C/C=C(/C)C(=O)O[C@H]1C(C)=C2[C@H]([C@@H]1OC(=O)CCCCCCC)[C@@](C)(OC(C)=O)C[C@H](OC(=O)CCC)[C@@]1(O)[C@H]2OC(=O)[C@@]1(C)O` [TG, Thapsigargin], the “effect on aggregation sensor activity normalized by cell survival” value in assay [1] was “increase of only sAβ activity in a TG dose-dependent manner”.

As for “synthetic Aβ peptide: synthetic Aβ42 peptide (Bachem) used for in vitro aggregation”, in assay [2], the “exponential phase of in vitro aggregation” value lay within 6 to 24 h and the “plateau of in vitro aggregation” value is 24 to 72 h.

As to (−)-Epigallocatechin gallate [EGCG], the “effect on cLucAβ activity compared to solvent alone” value in the assay on cLucAβ is “no effect”. Besides, the “effect on sLucAβ activity compared to solvent alone” value in the assay on sLucAβ is on record as “significantly increased activity”.

`O=c1c(O)c(-c2ccc(O)c(O)c2)oc2cc(O)cc(O)c12` [Quercetin]: in the assay with cLucAβ, the “effect on cLucAβ activity compared to solvent alone” value is recorded as “no effect”. Moreover, the “effect on sLucAβ activity compared to solvent alone” value in the assay with sLucAβ is given as “significantly increased activity”.

As for `O[C@H]1[C@H](O)[C@@H](O)[C@H](O)[C@@H](O)[C@@H]1O` [Scilloinositol, scyllo-inositol], the “effect on cLucAβ activity compared to solvent alone” value with cLucAβ is “no effect”. Moreover, the “effect on sLucAβ activity compared to solvent alone” value with sLucAβ is “significantly increased activity”.
